Measurements published in patent US8268854B2, “Aza-beta-carbolines and methods of using same” (The UWM Research Foundation, Inc., priority 2008, dated 2012).
pKi: −log10 of the molar value. Structures can show the parent of a compound that is named as a salt. Where two headings read alike, the source gives them in different places.

Assays:
Dopamine receptor D2 = target: T1, Dopamine receptor D2 (Homo sapiens, UniProt P14416); assay: PDSP secondary radioligand binding assay
T1 construct: expressed in transfected cells
Experimental: Primary and secondary radioligand binding assays are performed. In general, the primary assay is run at very high ligand (compound) concentration as a broad screen to determine whether a compound binds to a particular receptor. If greater than 50% inhibition at 10 μM (high concentration of compound) at a particular receptor is determined, a secondary assay is performed on that receptor. Data from the secondary assay is the binding affinity (Ki value).
This assay is used to test binding to receptors such as the serotonin receptors: 5-HT1A, 5-HT1B, 5-HT1D, 5-HT1E, 5-HT2A, 5-HT2B, 5-HT2C, 5-HT3, 5-HT5A, 5-HT6 and 5-HT7. The protocol is adapted from Roth et al. J. Pharmacol. Exp. Ther. 1986, 238, 480-485 and Roth et al. J. Pharmacol. Exp. Ther. 1994, 268, 1403-1410. The assay buffer is Standard Binding Buffer (50 mM Tris-HCl, 10 mM MgCl2, 0.1 mM EDTA, pH 7.4). The membrane fraction source is transiently or stably transfected cell lines (e.g., HEK293, COS, CHO, NIH3T3).
A solution of the compound to be tested is prepared as a 1 mg/mL stock in Standard Binding Buffer or DMSO according to its solubility. A similar stock of a reference compound (positive control) is also prepared.
Radioligand (see Table 41) is diluted to five times the assay concentration (see Table 21) in Standard Binding Buffer. […]
The 250 μL reactions are incubated at room temperature and shielded from light (to prevent photolysis of light-sensitive ligands) for 1.5 hours, then harvested by rapid filtration onto Whatman GF/B glass fiber filters pre-soaked with 0.3% polyethyleneimine using a 96-well Brandel harvester. […] The tubes are capped, labeled, and counted by liquid scintillation counting. For higher throughput assays, bound radioactivity is harvested onto 0.3% polyethyleneimine-treated, 96-well filter mats using a 96-well Filtermate harvester. The filter mats are dried, then scintillant is melted onto the filters, and the radioactivity retained on the filters is counted in a Microbeta scintillation counter. […]

[1] = target: T2, GABAA receptor α3 subtype with β2 and γ2 subunits (Homo sapiens, UniProt P18507+P34903); assay: Competition binding assay with [3H]flunitrazepam
T2 construct: expressed in transfected cells; host or cells: HEKT cell line, transient transfection with Fugene 6
Text: (§1) Bound radioactivity is quantified by liquid scintillation counting.

[2] = target: T3, GABAA receptor α5 subtype with β2 and γ2 subunits (Homo sapiens, UniProt P18507+P31644); assay: Competition binding assay with [3H]flunitrazepam
T3 construct: expressed in transfected cells; host or cells: HEKT cell line, transient transfection with Fugene 6
Text: as §1

[3] = target: T4, GABAA receptor α1 subtype with β2 and γ2 subunits (Homo sapiens, UniProt P14867+P18507); assay: Competition binding assay with [3H]flunitrazepam
T4 construct: expressed in transfected cells; host or cells: HEKT cell line, transient transfection with Fugene 6
Text: as §1

[4] = target: T5, GABAA receptor α2 subtype with β2 and γ2 subunits (Homo sapiens, UniProt P18507+P47869); assay: Competition binding assay with [3H]flunitrazepam
T5 construct: expressed in transfected cells; host or cells: HEKT cell line, transient transfection with Fugene 6
Text: as §1

pKi ([1]; [3H]flunitrazepam, α3β2γ2, HEKT cells, read-out: GABAA RECEPTOR BINDING α3) | pKi ([2]; [3H]flunitrazepam, α5β2γ2, HEKT cells, read-out: GABAA RECEPTOR BINDING α5) | pKi ([3]; [3H]flunitrazepam, α1β2γ2, HEKT cells, read-out: GABAA RECEPTOR BINDING α1) | pKi ([4]; [3H]flunitrazepam, α2β2γ2, HEKT cells, read-out: GABAA RECEPTOR BINDING α2) | SMILES | pKi (Dopamine receptor D2) | pKi [1] | pKi [2] | pKi [3] | pKi [4]
8.39 | 7.91 | 8.01 | 9.48 | CCCOc1cc2c(cn1)[nH]c1ccncc12 [Compound 2, 8-Propoxypyridino[4′,3′-5,4]pyrrolo[3,2-c]pyridine hydrochloride] | < 5.00 |  |  |  | 
 |  |  |  | CCCOc1cc2c(cn1)[nH]c1cnccc12 [Compound 4, 3-Propoxy pyridino[4′,3′-4,5]pyrrolo[2,3-c]pyridine hydrochloride] | < 5.00 | 8.83 | 7.37 | 8.24 | 8.20
